{"source": "patent US20190030018A1", "about": "(Celgene Corporation, priority 2017, published 2019)", "key": {"BON cells": {"tested_on": "BON cells", "experiment": "Signaling and proliferation of BON cells, CellTiter-Glo assay (2D and 3D plates)", "assay_type": "cell-based", "details": "BON1, single agent"}, "[1]": {"tested_on": "human QGP1 pancreatic somatostatinoma xenografts", "details": "mouse, in vivo", "experimental": "Treatment began on Day 1 in nine groups of mice (n=10) with established subcutaneous QGP1 tumors. […] Tumors were measured using calipers twice each week to the end of the study on Day 52. Three tumors at or near the group median tumor volume 2000 mm^3 endpoint were sampled from each group.\nTreatment efficacy was based on tumor growth inhibition (TGI), defined as the difference between the final (Day 52) median tumor volumes (MTVs) of treated and control mice. The results were analyzed utilizing the Mann-Whitney U-test, and were deemed statistically significant at P≤0.05. Drug tolerability was assessed by body weight measurements and by frequent observation of treated animals."}, "[2]": {"tested_on": "caspase-3 activation and GSPT1 degradation in BMMCs from a MDS patient", "experiment": "Apoptosis and GSPT1 degradation by flow cytometry 24 hours after exposure", "assay_type": "cell-based, human", "details": "24 hours exposure"}, "physchem [3]": {"experiment": "physchem", "assay_type": "physicochemical", "source_text": "“Compound 1, Form C” or “Form C” or “API”” in the Examples herein refers to polymorph Form C of 2-(4-chlorophenyl)-N-((2-(2,6-dioxopiperidin-3-yl)-1-oxoisoindolin-5-yl)methyl)-2,2-difluoroacetamide. “Compound 1, Form A” or “Form A” in the Examples herein refers to polymorph Form A of 2-(4-chlorophenyl)-N-((2-(2,6-dioxopiperidin-3-yl)-1-oxoisoindolin-5-yl)methyl)-2,2-difluoroacetamide."}, "[4]": {"tested_on": "GSPT1, Mcl-1, Bcl-2, cleaved caspase 3 in KG-1 cells", "experiment": "KG-1 western blots, 16 h", "assay_type": "cell-based", "description": "KG-1 cells were seeded in 6 well tissue culture plates at 500,000 cells per mL, 4 mL per well. […] Cells were then washed twice with cold PBS and lysed with M-PER lysis buffer (Thermo) supplemented with 150 mM NaCl and Halt protease and phosphatase inhibitor cocktail (Thermo) on ice for 30 min. Crude lysates were clarified by centrifugation (14000 rpm, 10 min, 4° C.) and total protein quantified by BCA assay. GSPT1 (Abcam, ab49878), Mcl-1 (CST, 4572), Bcl-2 (CST, 4223), cleaved caspase 3 (CST, 9664), and GAPDH (Santa Cruz, sc-47724) levels were probed by western and imaged on a LiCor infrared imager."}, "[5]": {"experiment": "Solubility of Compound 1 in Kleptose solutions ('top-down' approach)", "assay_type": "physicochemical", "details": "formic acid 1.65 mg/mL", "description": "The Kleptose concentration varied from 30 to 100 mg/mL."}, "BMMCs from MDS patients": {"tested_on": "BMMCs from MDS patients", "experiment": "Ex vivo liquid culture of BMMCs from MDS patients, Compound 1 with everolimus (viable cell count)", "assay_type": "cell-based, human", "description": "Cultures were maintained for 1 week and cell numbers were measured by viable cell count on days 1, 3 and 7 of culture."}, "physchem [6]": {"experiment": "physchem", "assay_type": "physicochemical", "details": "25 °C, aqueous with cosolvent or surfactant or cyclodextrin, thermodynamic from solid, Solubility at 25° C. (mg/mL)", "description": "Two studies were performed to evaluate the supersaturation risks of Kleptose based formulations. […] The second study is intended to evaluate the kinetics of drug precipitation in Formulation Ib.\nIn this experiment, ten solutions were prepared by dissolving Kleptose and formic acid in WFI. The Kleptose concentration in all the ten solutions varied from 30 mg/mL to 250 mg/mL, while the formic acid concentration was kept constant at 1.65 mg/mL as used in the bulk solution of formulation Ib. […] Then the sample of each solution was taken and centrifuged for assay testing."}, "[7]": {"tested_on": "IL3 independent JAK2 V617F BaF3 cells", "experiment": "Combination studies with JAK2 inhibitors in engineered BaF3 cells, CellTitre-Glo after 3 days", "assay_type": "cell-based", "details": "compared to the IL3 dependent lines", "description": "(§1) Everolimus was included as a control. The cell viability was then measured by CellTitre-Glo® after 3 days."}, "[8]": {"tested_on": "BaF3 cells expressing hCRBN, hCRBN and JAK2 wt, or hCRBN and JAK2-V617F", "experiment": "Combination studies with JAK2 inhibitors in engineered BaF3 cells, CellTitre-Glo after 3 days", "assay_type": "cell-based", "details": "IL3 dependent BaF3 lines", "description": "as §1"}, "physchem [9]": {"experiment": "physchem", "details": "aqueous with cosolvent or surfactant or cyclodextrin", "experimental": "In the first precipitation study, four solution formulations were prepared at a Kleptose concentration of 100 mg/mL. […] Then the solutions were stored in three conditions: (1) at ambient condition with mild mixing; (2) at ambient condition without mixing; (3) at 2-8° C. without mixing.\nThe corresponding drug concentration of each formulation was 300, 400, and 500 μg/mL so that the supersaturation ratio was about 5× for all the three formulations. […] In the study, the same experiments were repeated twice to evaluate the reproducibility of the results."}, "[10]": {"tested_on": "primary human tumor xenograft model GA0087", "experiment": "HuPrime gastric cancer xenograft GA0087 model, in vivo efficacy", "design": "species or system female BALB/c nude mice", "details": "single agent", "source_text": "Tumor fragments from stock mice were harvested and used for inoculation into mice. Each mouse was inoculated subcutaneously at the right flank with primary human tumor xenograft model GA0087 tumor fragment (P7, 2-3 mm in diameter) for tumor development. […] After tumor inoculation, the animals were checked daily for morbidity and mortality. At the time of routine monitoring, the animals were checked for any effects of tumor growth and treatments on normal behavior such as mobility, food and water consumption, body weight gain/loss, eye/hair matting and any other abnormal effect. Death of euthanized mouse was recorded. All groups were terminated on Day 40. Three tumors in each group, with tumor volume near median of each group were collected. Plasma of the same mice were collected. For comparison among three or more groups, one-way ANOVA was performed followed by multiple comparison procedures. All data were analyzed using SPSS 18.0. P values <0.05 is considered to be statistically significant."}, "[11]": {"tested_on": "IDH2 mutant cell line TF1-R140Q", "experiment": "Proliferation (total, HSC and progenitor cell count) in the TF1 assay", "assay_type": "cell-based", "description": "Cells were plated at a density of 0.2e^6 cells/ml of 2 ml culture in 6 well plates.\nTF1 cells were cultured in the following media: RPMI containing HEPES and L-glutamine, 10% FBS, Pen/Strep, G418 (final conc 500 μg/ml), and GM-CSF (final conc 5 ng/ml). The cells were cultured for 7 days, with or without compound treatment as described in FIG. 91.\nFor the hemoglobinization assay, TF1 cells were washed three times with PBS to remove residual GM-CSF then plated at (100,000 cells/ml). Cells were then induced to differentiate using EPO (2 unit/ml). Induction continued for 7 days with changing media on 4th day and adding media with fresh EPO. The cell pellets were collected and imaged for hemoglobinization content (as a surrogate for differentiation into blood lineage). Cells were pelleted, washed, stained with a panel of antibodies and analyzed by flow cytometry, using the following antibodies: […]"}}}
{"smiles": "O=C1CCC(N2Cc3cc(CNC(=O)C(F)(F)c4ccc(Cl)cc4)ccc3C2=O)C(=O)N1", "note": "(stereo not shown) [Compound 1, 2-(4-chlorophenyl)-N-((2-(2,6-dioxopiperidin-3-yl)-1-oxoisoindolin-5-yl)methyl)-2,2-difluoroacetamide]", "values": [{"measurement": "standalone activity on proliferation", "setting": "BON cells", "result": "no standalone activity"}, {"measurement": "weight loss", "setting": "[1]", "result": "1.6-6.8%"}, {"measurement": "Caspase 3 activation", "setting": "[2]", "result": "activated"}, {"measurement": "GSPT1 degradation", "setting": "[2]", "result": "degraded"}, {"measurement": "Hygroscopicity", "setting": "physchem [3]", "result": "Not hygroscopic"}, {"measurement": "Solid State Stability", "setting": "physchem [3]", "result": "DS is physically stable under all storage conditions."}, {"measurement": "chemical stability in solution", "setting": "physchem [3]; pH 5", "result": "chemically instable in solution above pH 5"}, {"measurement": "solubility", "setting": "physchem [3]; water", "result": "≤ 1", "unit": "µg/mL"}, {"measurement": "Mcl-1 levels", "setting": "[4]", "result": "reduce levels of Mcl-1"}, {"measurement": "Assay at t = 0", "setting": "[5]; Kleptose 30 mg/mL", "result": 0.114, "unit": "mg/mL"}, {"measurement": "Assay at t = 4 wks without Compound 1 crystal at 25° C.", "setting": "[5]; Kleptose 30 mg/mL", "result": 0.036, "unit": "mg/mL"}, {"measurement": "Assay at t = 9 days with Compound 1 crystal at 25° C.", "setting": "[5]; Kleptose 30 mg/mL", "result": 0.036, "unit": "mg/mL"}, {"measurement": "Assay at t = 0", "setting": "[5]; Kleptose 60 mg/mL", "result": 0.115, "unit": "mg/mL"}, {"measurement": "Assay at t = 4 wks without Compound 1 crystal at 25° C.", "setting": "[5]; Kleptose 60 mg/mL", "result": 0.114, "unit": "mg/mL"}, {"measurement": "Assay at t = 9 days with Compound 1 crystal at 25° C.", "setting": "[5]; Kleptose 60 mg/mL", "result": 0.065, "unit": "mg/mL"}, {"measurement": "Assay at t = 0", "setting": "[5]; Kleptose 70 mg/mL", "result": 0.115, "unit": "mg/mL"}, {"measurement": "Assay at t = 4 wks without Compound 1 crystal at 25° C.", "setting": "[5]; Kleptose 70 mg/mL", "result": 0.114, "unit": "mg/mL"}, {"measurement": "Assay at t = 9 days with Compound 1 crystal at 25° C.", "setting": "[5]; Kleptose 70 mg/mL", "result": 0.077, "unit": "mg/mL"}, {"measurement": "Assay at t = 0", "setting": "[5]; Kleptose 80 mg/mL", "result": 0.116, "unit": "mg/mL"}, {"measurement": "Assay at t = 4 wks without Compound 1 crystal at 25° C.", "setting": "[5]; Kleptose 80 mg/mL", "result": 0.114, "unit": "mg/mL"}, {"measurement": "Assay at t = 9 days with Compound 1 crystal at 25° C.", "setting": "[5]; Kleptose 80 mg/mL", "result": 0.103, "unit": "mg/mL"}, {"measurement": "Assay at t = 0", "setting": "[5]; Kleptose 90 mg/mL", "result": 0.116, "unit": "mg/mL"}, {"measurement": "Assay at t = 4 wks without Compound 1 crystal at 25° C.", "setting": "[5]; Kleptose 90 mg/mL", "result": 0.115, "unit": "mg/mL"}, {"measurement": "Assay at t = 9 days with Compound 1 crystal at 25° C.", "setting": "[5]; Kleptose 90 mg/mL", "result": 0.114, "unit": "mg/mL"}, {"measurement": "Assay at t = 0", "setting": "[5]; Kleptose 100 mg/mL", "result": 0.117, "unit": "mg/mL"}, {"measurement": "Assay at t = 4 wks without Compound 1 crystal at 25° C.", "setting": "[5]; Kleptose 100 mg/mL", "result": 0.115, "unit": "mg/mL"}, {"measurement": "Assay at t = 9 days with Compound 1 crystal at 25° C.", "setting": "[5]; Kleptose 100 mg/mL", "result": 0.117, "unit": "mg/mL"}, {"measurement": "effect of single agent", "setting": "BMMCs from MDS patients; 37 nM", "result": "No effect"}, {"measurement": "reduction of cell numbers", "setting": "BMMCs from MDS patients; 37 nM, after 3 days of culture", "result": "~70", "unit": "%"}, {"measurement": "cell number decrease", "setting": "BMMCs from MDS patients; higher concentrations", "result": "up to 95%"}, {"measurement": "solubility at 72 h", "setting": "physchem [6]", "result": 86, "unit": "µg/mL"}, {"measurement": "single agent sensitivity", "setting": "[7]", "result": "more sensitive"}, {"measurement": "difference in single agent effect on cell viability between cell lines", "setting": "[8]", "result": "no difference"}, {"measurement": "solubility at 2 days", "setting": "physchem [9]", "result": 135, "unit": "µg/mL"}, {"measurement": "solubility at 9 days", "setting": "physchem [9]", "result": 115, "unit": "µg/mL"}, {"measurement": "solubility at 34 days", "setting": "physchem [9]", "result": 98, "unit": "µg/mL"}, {"measurement": "tumor growth inhibition (mean tumor volume)", "setting": "[10]", "result": "showed tumor growth inhibition"}, {"measurement": "anti-tumor activity", "setting": "[10]; 1.25 mg/kg and 2.5 mg/kg", "result": "moderate anti-tumor activity"}, {"measurement": "anti-tumor activity", "setting": "[10]; 5 mg/kg", "result": "prominent anti-tumor activity"}, {"measurement": "proliferation (total, HSC and progenitor cell count)", "setting": "[11]", "result": "inhibition of proliferation"}]}
